Data: patent US6955873B1, “Diagnosis and treatment system for reward deficiency syndrome (RDS) and related behaviors” (priority 1999, dated 2005)
Read-outs that look alike come from different tables or passages of the source.

Key:
young obese women = details: cited from earlier work
[1] = system: obese subjects genotyped for the dopamine D2 receptor gene (DRD2); details: 400 mcg of CrP/day, cited from earlier work
over-eating patients [2] = details: 400 mcg vs placebo, cited from earlier work
[3] = system: obese subjects genotyped for the dopamine D2 receptor gene (DRD2); test: Chromium picolinate body composition response as a function of DRD2 Taq1 A1 genotype; type: in vivo, human
Description: In order to resolve the issue of non-responders, the inventor decided to test the hypothesis that typing the obese patients by genotyping the DRD2 gene prior to treatment with CrP would result in a differential treatment outcome. […] One of us (KB) predicted carriers of the DRD2 A2 allele would retain the positive metabolic effects of P, but in contrast the DRD2 A1 carriers, because there is a proclivity to increased carbohydrate binging, would possibly mask the metabolic effects of CrP on weight loss and change in body fat attenuating any positive effects. One prophetic example as described earlier (see page 48):
The inventor genotyped 130 obese subjects for the dopamine D2 receptor gene (DRD2) utilizing standard PCR techniques. The subjects were assessed for scale weight and for percent body fat using dual energy X-ray absorptiometry (DEXAR). The subjects were divided into matched placebo and chromium picolinate (CrP) groups (400μg. per day). The sample was separated into two independent groups; those with either an A1/A1 or A1/A2 allele and those with only the A2/A2 allelic pattern. Each of these groups was tested separately for differences between placebo and treatment means for a variety of measures of weight change. These measures consisted of calculations of the percent of fat weight change; the change in fat weight; the change in body weight; the change in free mass, the percent change of fat weight; the body composition index; and the body weight change in kilograms.

[4] = system: patients following weight reduction; details: after six months; cited from earlier work
over-eating patients [5] = details: 200 and 400 mcg, compared with placebo; cited from earlier work

Substance: Chromium Picolinate
- weight gain (young obese women; CrP supplementation alone, 43 pts, 63 days): CrP supplementation resulted in significant weight
- weight loss (young obese women; exercise training combined with CrP supplementation): supplementation resulted in significant weight loss
- changes in fat weight, body weight, percent change in weight, body weight changes in kgms ([1]; A1/A2 and A1/A1 carriers, listed as CrP): non-
- changes in fat weight, body weight, percent change in weight, body weight changes in kgms ([1]; A2/A2 group): changes in kgms were all significant in A2/A2 group,
- reduction in body fat (over-eating patients [2]; p < 0.001): greater reduction in body fat (p < 0.001), significantly
- weight lost (over-eating patients [2]; p < 0.001): group, 400 mcg CrP group lost significantly more
- body composition (over-eating patients [2]; p < 0.004): improve body composition (p < 0.004).
- body fat lost (over-eating patients [2]; p < 0.004): group, 400 mcg CrP group lost significantly more
- body weight change in kilograms, treatment vs placebo ([3]; A2/A2, p<0.012): significant
- change in fat weight, treatment vs placebo ([3]; A2/A2, p<0.041): significant
- percent change in weight, treatment vs placebo ([3]; A2/A2, p<0.044): significant
- responsiveness to the effects of CrP ([3]; DRD2 A2 allele carriers versus DRD2 A1 allele carriers, 400 ug per day): more responsive
- any parameter of weight change, treatment vs placebo ([3]; subjects possessing a DRD2 A1 allele): no significance
- non-fat related weight loss [4]: lean body mass and avoided non-fat related weight
- changes in Body Mass composition indicies (over-eating patients [5]): 200 and 400 mcg of CrP brought about significant
